Laboratory results taken from US12570687B2, “Triterpenoid compounds, pharmaceutical compositions thereof, and their use for treating a nuclear receptor subfamily 4 group a member 1-mediated disease” (NUCMITO PHARMACEUTICALS COMPANY LIMITED, priority 2019, dated 2026).

What was measured:
Format in all cases: cell-based
[1] = tested on: A375 (malignant melanoma); assay: MTT antiproliferative assay, A375; settings: Homo sapiens, A-375, A375, 10 μM, 48 or 72 h, read-out: inhibition of cell growth, A375
Experimental: (§1) The antiproliferative activity of a test compound was determined in cell lines: MDA-MB-231 (breast cancer), HepG2 (liver cancer), SW620 (colon cancer), A375 (malignant melanoma), A431 (epidermoid carcinoma), A549 (lung adenocarcinoma), and HeLa ([…]). MDA-MB-231, HepG2, SW480, SW620, A375, and A431 cells were cultured in Dulbecco's modified Eagle's medium (DMEM) containing 10% fetal bovine serum (FBS). HeLa cells were cultured in MEM/EBSS (MEM) containing 10% FBS. A549 cells were maintained in Kaighn's modification of Ham's F-12 medium containing 10% FBS. The colorimetric MTT (3-(4,5-dimethylthiazol-2-yl)-2,5-diphenyltetrazolium bromide) assay was used to measure the cell viability of different cells following treatment with the test compound.
(§2) Briefly cells were seeded in a 96 well plate at a density of 2,000-5,000 cells/well. Following attachment, the cells were treated with the test compound in media at various concentrations ranging from 0.137 to 100 μM or at a single concentration of 10 μM. After the cells were incubated at 37° C. for 48 or 72 h, MTT (20 μL, 5 mg/mL in PBS) was added to each well and the cells were incubated for another 4 h at 37° C. The supernatant was removed carefully and 150 μL of DMSO was added to each well to dissolve the MTT formazan crystals. The plate was shaken for 15-20 min and the absorbance value of each well was determined using a multi-well plate reader at 490 nm. The wells treated with DMSO were taken as a vehicle control. Data were also obtained similarly for all the replicates and the percentage viability was determined with respect to the DMSO-treated cells. The results are summarized in Table 1 below, wherein A represents no less than 80% inhibition of cell growth at 10 μM; B represents no less than 50% but less than 80% inhibition of cell growth at 10 μM; C represents no less than 30% but less than 50% inhibition of cell growth at 10 μM; and D represents less than 30% inhibition of cell growth at 10 μM.

[2] = tested on: MDA-MB-231 (breast cancer); assay: MTT antiproliferative assay, MDA-MB-231; settings: Homo sapiens, MDA-MB-231, 10 μM, 48 or 72 h, read-out: inhibition of cell growth, MDA-MB-231
Experimental: as §1, §2

HepG2 (liver cancer) = assay: MTT antiproliferative assay, HepG2; settings: Homo sapiens, HepG2, 10 μM, 48 or 72 h, read-out: inhibition of cell growth, HepG2
Experimental: as §1, §2

[3] = tested on: A431 (epidermoid carcinoma); assay: MTT antiproliferative assay, A431; settings: Homo sapiens, A-431, A431, 10 μM, 48 or 72 h, read-out: inhibition of cell growth, A431
Experimental: as §1, §2

SW620 (colon cancer) = assay: MTT antiproliferative assay, SW620; settings: Homo sapiens, SW-620, SW620, 10 μM, 48 or 72 h, read-out: inhibition of cell growth, SW620
Experimental: as §1, §2

[4] = tested on: A549 (lung adenocarcinoma); assay: MTT antiproliferative assay, A549; settings: Homo sapiens, A549, 10 μM, 48 or 72 h, read-out: inhibition of cell growth, A549
Experimental: as §1, §2

HeLa (ovarian cancer) = assay: MTT antiproliferative assay, HeLa; settings: Homo sapiens, 48 or 72 h, read-out: inhibition of cell growth, HELA
Experimental: as §1, §2

| SMILES | inhibition at 10 µM [1] | inhibition at 10 µM [2] | inhibition at 10 µM (HepG2 (liver cancer)) | inhibition at 10 µM [3] | inhibition at 10 µM (SW620 (colon cancer)) | inhibition at 10 µM [4] | inhibition at 10 µM (HeLa (ovarian cancer)) |
| --- | --- | --- | --- | --- | --- | --- | --- |
| CO[C@]1(C)C(=O)C(=O)C=C2C1=CC=C1[C@@]2(C)CC[C@@]2(C)[C@@H]3C[C@](C)(CO)CC[C@]3(C)CC[C@]12C [Compound A14, (4S,6bS,8aS,11R,12aR,12bS,14aR)-11-(hydroxymethyl)-4-methoxy-4,6b,8a,11,12b,14a-hexamethyl-4,6b,7,8,8a,9,10,11,12,12a,12b,13,14,14a-tetradecahydropicene-2,3-dione] | < 30% | < 30% | < 30% | < 30% | < 30% | < 30% | 30 to 50% |
| CO[C@@]1(C)C2=CC=C3[C@@](C)(CC[C@@]4(C)[C@@H]5C[C@](C)(C(=O)O)CC[C@]5(C)CC[C@]34C)C2=CC(=O)[C@@H]1O [Compound A15, (2R,4aS,6aS,9S,10R,12bR,14aS,14bR)-10-hydroxy-9-methoxy-2,4a,6a,9,12b,14a-hexamethyl-11-oxo-1,2,3,4,4a,5,6,6a,9,10,11,12b,13,14,14a,14b-hexadecahydropicene-2-carboxylic acid] | 50 to 80% | ≥ 80% | 30 to 50% | 50 to 80% | 30 to 50% | < 30% | 50 to 80% |
| CO[C@@]1(C)C2=CC=C3[C@@](C)(CC[C@@]4(C)[C@@H]5C[C@](C)(C(=O)OCc6ccccc6)CC[C@]5(C)CC[C@]34C)C2=CC(=O)[C@@H]1O [Compound A16, benzyl (2R,4aS,6aS,9S,10R,12bR,14aS,14bR)-10-hydroxy-9-methoxy-2,4a,6a,9,12b,14a-hexamethyl-11-oxo-1,2,3,4,4a,5,6,6a,9,10,11,12b,13,14,14a,14b-hexadecahydropicene-2-carboxylate] | 50 to 80% | ≥ 80% | ≥ 80% | ≥ 80% | ≥ 80% | ≥ 80% | ≥ 80% |
| CNC(=O)[C@]1(C)CC[C@]2(C)CC[C@]3(C)C4=CC=C5C(=CC(=O)[C@H](O)[C@@]5(C)OC)[C@]4(C)CC[C@@]3(C)[C@@H]2C1 [Compound A17, (2R,4aS,6aS,9S,10R,12bR,14aS,14bR)-10-hydroxy-9-methoxy-N,2,4a,6a,9,12b,14a-heptamethyl-11-oxo-1,2,3,4,4a,5,6,6a,9,10,11,12b,13,14,14a,14b-hexadecahydropicene-2-carboxamide] | 50 to 80% | ≥ 80% | ≥ 80% | ≥ 80% | ≥ 80% | 30 to 50% | 50 to 80% |
| CO[C@@]1(C)C2=CC=C3[C@@](C)(CC[C@@]4(C)[C@@H]5C[C@](C)(CO)CC[C@]5(C)CC[C@]34C)C2=CC(=O)[C@@H]1O [Compound A18, (3R,4S,6bS,8aS,11R,12aR,12bS,14aR)-3-hydroxy-11-(hydroxymethyl)-4-methoxy-4,6b,8a,11,12b,14a-hexamethyl-2,3,4,6b,7,8,8a,9,10,11,12,12a,12b,13,14,14a-hexadecahydropicen-2-one] | 50 to 80% | ≥ 80% | ≥ 80% | ≥ 80% | ≥ 80% | 30 to 50% | ≥ 80% |
| CO[C@@]1(C)C2=CC=C3[C@@](C)(CC[C@@]4(C)[C@@H]5C[C@](C)(C=O)CC[C@]5(C)CC[C@]34C)C2=CC(=O)[C@@H]1O [Compound A19, (2R,4aS,6aS,9S,10R,12bR,14aS,14bR)-10-hydroxy-9-methoxy-2,4a,6a,9,12b,14a-hexamethyl-11-oxo-1,2,3,4,4a,5,6,6a,9,10,11,12b,13,14,14a,14b-hexadecahydropicene-2-carbaldehyde] | 30 to 50% | 50 to 80% | 50 to 80% | ≥ 80% | 50 to 80% | 50 to 80% | ≥ 80% |
| COC(=O)[C@]1(C)CC[C@]2(C)CC[C@]3(C)C4=CC=C5C(=CC(=O)[C@H](O)[C@@]5(C)OC)[C@]4(C)CC[C@@]3(C)[C@@H]2C1 [Compound A20, methyl (2R,4aS,6aS,9S,10R,12bR,14aS,14bR)-10-hydroxy-9-methoxy-2,4a,6a,9,12b,14a-hexamethyl-11-oxo-1,2,3,4,4a,5,6,6a,9,10,11,12b,13,14,14a,14b-hexadecahydropicene-2-carboxylate] | 50 to 80% | ≥ 80% | ≥ 80% | ≥ 80% | ≥ 80% | ≥ 80% | ≥ 80% |
| CO[C@@]1(C)C2CCC3[C@@](C)(CC[C@@]4(C)[C@@H]5C[C@](C)(C(=O)O)CC[C@]5(C)CC[C@]34C)C2=CC(=O)[C@@H]1O (stereo partly drawn) [Compound A21, (2R,4aS,6aR,9S,10R,12bR,14aS,14bR)-10-hydroxy-9-methoxy-2,4a,6a,9,12b,14a-hexamethyl-11-oxo-1,2,3,4,4a,5,6,6a,6b,7,8,8a,9,10,11,12b,13,14,14a,14b-icosahydropicene-2-carboxylic acid] | < 30% | < 30% | < 30% | < 30% | < 30% | < 30% | < 30% |
| CCCC(=O)O[C@H]1C(=O)C=C2C(=CC=C3[C@@]2(C)CC[C@@]2(C)[C@@H]4C[C@](C)(C(=O)NC)CC[C@]4(C)CC[C@]32C)[C@]1(C)OC [Compound A23, (3R,4S,6bS,8aS,11R,12aR,12bS,14aR)-4-methoxy-4,6b,8a,11,12b,14a-hexamethyl-11-(methylcarbamoyl)-2-oxo-2,3,4,6b,7,8,8a,9,10,11,12,12a,12b,13,14,14a-hexadecahydropicen-3-yl butyrate] | 50 to 80% | ≥ 80% | ≥ 80% | ≥ 80% | ≥ 80% | ≥ 80% | ≥ 80% |
| CCCC(=O)O[C@H]1C(O)C=C2C(=CC=C3[C@@]2(C)CC[C@@]2(C)[C@@H]4C[C@](C)(C(=O)OC)CC[C@]4(C)CC[C@]32C)[C@]1(C)OC (stereo partly drawn) [Compound A25, methyl (2R,4aS,6aS,9S,10S,12bR,14aS,14bR)-10-(butyryloxy)-11-hydroxy-9-methoxy-2,4a,6a,9,12b,14a-hexamethyl-1,2,3,4,4a,5,6,6a,9,10,11,12b,13,14,14a,14b-hexadecahydropicene-2-carboxylate] | < 30% | < 30% | < 30% | < 30% | < 30% | < 30% | < 30% |
| CNC1(O)C(=O)C=C2C(=CC=C3[C@@]2(C)CC[C@@]2(C)[C@@H]4C[C@](C)(C(=O)OC)CC[C@]4(C)CC[C@]32C)[C@]1(C)OC (stereo partly drawn) [Compound A26, methyl (2R,4aS,6aS,9S,12bR,14aS,14bR)-10-hydroxy-9-methoxy-2,4a,6a,9,12b,14a-hexamethyl-10-(methylamino)-11-oxo-1,2,3,4,4a,5,6,6a,9,10,11,12b,13,14,14a,14b-hexadecahydropicene-2-carboxylate] | 30 to 50% | 30 to 50% | 30 to 50% | 30 to 50% | 30 to 50% | < 30% | 30 to 50% |
